Assays:
[1] = target: T1, Xanthine dehydrogenase/oxidase (Homo sapiens, UniProt P47989); test: Inhibition of xanthine oxidase (unknown origin) assessed as reduction in uric acid formation using xanthine as substrate after 30 mins by UV-Vis spectrophotometric assay
[2] = target: T1, Xanthine dehydrogenase/oxidase; test: Potency index, ratio of allopurinol IC50 to compound IC50 for xanthine oxidase (unknown origin)
[3] = Potency index, ratio of allopurinol IC50 to compound IC50 for butter milk xanthine oxidase (unknown origin)
[4] = Inhibition of butter milk xanthine oxidase (unknown origin) assessed as reduction in uric acid formation using xanthine as substrate by UV-Vis spectrophotometric assay
[5] = target: T1, Xanthine dehydrogenase/oxidase; test: Inhibition of xanthine oxidase (unknown origin) assessed as reduction in uric acid formation using xanthine as substrate after 4 mins by UV-Vis spectrophotometric assay
[6] = Inhibition of butter milk xanthine oxidase (unknown origin) assessed as reduction in uric acid formation using xanthine as substrate by spectrophotometric assay
[7] = Potency index, ratio of quercetin IC50 to compound IC50 for butter milk xanthine oxidase (unknown origin)
[8] = target: T2, Xanthine dehydrogenase/oxidase (Bos taurus, UniProt P80457); test: Potency index, ratio of allopurinol IC50 to compound IC50 for bovine milk xanthine oxidase; settings: cattle
T2 sequence (P80457 whole entry): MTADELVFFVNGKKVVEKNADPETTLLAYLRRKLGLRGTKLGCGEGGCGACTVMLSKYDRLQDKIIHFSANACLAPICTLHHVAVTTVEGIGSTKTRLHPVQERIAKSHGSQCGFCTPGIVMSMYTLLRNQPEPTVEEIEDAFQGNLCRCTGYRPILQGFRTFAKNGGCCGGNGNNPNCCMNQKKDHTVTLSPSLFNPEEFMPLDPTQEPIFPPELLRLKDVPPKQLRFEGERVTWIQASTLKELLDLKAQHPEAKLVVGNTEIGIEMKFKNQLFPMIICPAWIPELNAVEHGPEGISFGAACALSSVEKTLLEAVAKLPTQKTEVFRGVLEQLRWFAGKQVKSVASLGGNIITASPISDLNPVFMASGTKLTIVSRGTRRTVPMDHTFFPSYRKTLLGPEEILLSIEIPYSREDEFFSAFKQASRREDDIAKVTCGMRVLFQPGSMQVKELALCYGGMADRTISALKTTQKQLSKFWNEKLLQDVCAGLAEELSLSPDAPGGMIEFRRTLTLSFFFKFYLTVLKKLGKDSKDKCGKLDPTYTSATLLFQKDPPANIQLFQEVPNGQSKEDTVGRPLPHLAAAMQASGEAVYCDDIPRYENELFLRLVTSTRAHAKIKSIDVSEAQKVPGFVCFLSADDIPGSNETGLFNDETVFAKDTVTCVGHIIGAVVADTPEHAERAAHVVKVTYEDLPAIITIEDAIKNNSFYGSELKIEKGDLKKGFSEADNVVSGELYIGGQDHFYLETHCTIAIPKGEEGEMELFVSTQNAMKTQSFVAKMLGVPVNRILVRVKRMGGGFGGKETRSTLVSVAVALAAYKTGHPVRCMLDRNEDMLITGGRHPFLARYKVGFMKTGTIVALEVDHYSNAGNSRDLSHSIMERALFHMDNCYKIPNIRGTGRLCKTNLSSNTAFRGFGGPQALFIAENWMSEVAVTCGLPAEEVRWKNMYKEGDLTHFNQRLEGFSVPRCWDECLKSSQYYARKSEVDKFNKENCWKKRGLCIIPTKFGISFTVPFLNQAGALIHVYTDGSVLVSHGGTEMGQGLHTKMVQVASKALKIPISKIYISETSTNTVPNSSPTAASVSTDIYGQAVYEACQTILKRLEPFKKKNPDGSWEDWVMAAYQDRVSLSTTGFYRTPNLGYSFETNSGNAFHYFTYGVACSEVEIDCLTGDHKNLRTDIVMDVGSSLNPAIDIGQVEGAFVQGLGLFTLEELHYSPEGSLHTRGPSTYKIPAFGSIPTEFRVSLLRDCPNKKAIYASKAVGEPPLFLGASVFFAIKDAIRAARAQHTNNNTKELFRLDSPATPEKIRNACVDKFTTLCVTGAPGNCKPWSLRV

[9] = target: T2, Xanthine dehydrogenase/oxidase; test: Inhibition of bovine milk xanthine oxidase assessed using xanthine as substrate after 10 mins by fluorometric assay
[10] = target: T2, Xanthine dehydrogenase/oxidase; test: Inhibition of bovine milk xanthine oxidase assessed as reduction in uric acid formation using xanthine as substrate preincubated for 5 mins followed by substrate addition by UV-Vis spectrophotometric assay
[11] = target: T2, Xanthine dehydrogenase/oxidase; test: Inhibition of bovine milk xanthine oxidase assessed as reduction in uric acid formation using xanthine as substrate preincubated for 3 hrs followed by substrate addition by UV-Vis spectrophotometric assay
[12] = target: T2, Xanthine dehydrogenase/oxidase; test: Inhibition of bovine milk xanthine oxidase assessed as reduction in uric acid formation using xanthine as substrate preincubated for 3 hrs followed by substrate addition measured after 1 min by UV spectrophotometric assay
[13] = Inhibition of butter milk xanthine oxidase (unknown origin) assessed as reduction in uric acid formation using xanthine as substrate by double beam spectrophotometric assay
[14] = target: T1, Xanthine dehydrogenase/oxidase; test: Inhibition of xanthine oxidase (unknown origin) using xanthine as substrate measured at every 1 mins up to 5 mins
[15] = target: T2, Xanthine dehydrogenase/oxidase; test: Competitive inhibition of bovine milk xanthine oxidoreductase assessed as reduction in uric acid formation by spectrophotometric assay
[16] = target: T1, Xanthine dehydrogenase/oxidase; test: Inhibition of xanthine oxidase (unknown origin) assessed as reduction in uric acid formation using xanthine as substrate after 10 mins
[17] = target: T1, Xanthine dehydrogenase/oxidase; test: Non-competitive inhibition of human xanthine oxidase
[18] = target: T2, Xanthine dehydrogenase/oxidase; test: Potency index, ratio of apigenin IC50 to compound IC50 for bovine milk xanthine oxidase; settings: cattle

T1 sequence (P47989 whole entry): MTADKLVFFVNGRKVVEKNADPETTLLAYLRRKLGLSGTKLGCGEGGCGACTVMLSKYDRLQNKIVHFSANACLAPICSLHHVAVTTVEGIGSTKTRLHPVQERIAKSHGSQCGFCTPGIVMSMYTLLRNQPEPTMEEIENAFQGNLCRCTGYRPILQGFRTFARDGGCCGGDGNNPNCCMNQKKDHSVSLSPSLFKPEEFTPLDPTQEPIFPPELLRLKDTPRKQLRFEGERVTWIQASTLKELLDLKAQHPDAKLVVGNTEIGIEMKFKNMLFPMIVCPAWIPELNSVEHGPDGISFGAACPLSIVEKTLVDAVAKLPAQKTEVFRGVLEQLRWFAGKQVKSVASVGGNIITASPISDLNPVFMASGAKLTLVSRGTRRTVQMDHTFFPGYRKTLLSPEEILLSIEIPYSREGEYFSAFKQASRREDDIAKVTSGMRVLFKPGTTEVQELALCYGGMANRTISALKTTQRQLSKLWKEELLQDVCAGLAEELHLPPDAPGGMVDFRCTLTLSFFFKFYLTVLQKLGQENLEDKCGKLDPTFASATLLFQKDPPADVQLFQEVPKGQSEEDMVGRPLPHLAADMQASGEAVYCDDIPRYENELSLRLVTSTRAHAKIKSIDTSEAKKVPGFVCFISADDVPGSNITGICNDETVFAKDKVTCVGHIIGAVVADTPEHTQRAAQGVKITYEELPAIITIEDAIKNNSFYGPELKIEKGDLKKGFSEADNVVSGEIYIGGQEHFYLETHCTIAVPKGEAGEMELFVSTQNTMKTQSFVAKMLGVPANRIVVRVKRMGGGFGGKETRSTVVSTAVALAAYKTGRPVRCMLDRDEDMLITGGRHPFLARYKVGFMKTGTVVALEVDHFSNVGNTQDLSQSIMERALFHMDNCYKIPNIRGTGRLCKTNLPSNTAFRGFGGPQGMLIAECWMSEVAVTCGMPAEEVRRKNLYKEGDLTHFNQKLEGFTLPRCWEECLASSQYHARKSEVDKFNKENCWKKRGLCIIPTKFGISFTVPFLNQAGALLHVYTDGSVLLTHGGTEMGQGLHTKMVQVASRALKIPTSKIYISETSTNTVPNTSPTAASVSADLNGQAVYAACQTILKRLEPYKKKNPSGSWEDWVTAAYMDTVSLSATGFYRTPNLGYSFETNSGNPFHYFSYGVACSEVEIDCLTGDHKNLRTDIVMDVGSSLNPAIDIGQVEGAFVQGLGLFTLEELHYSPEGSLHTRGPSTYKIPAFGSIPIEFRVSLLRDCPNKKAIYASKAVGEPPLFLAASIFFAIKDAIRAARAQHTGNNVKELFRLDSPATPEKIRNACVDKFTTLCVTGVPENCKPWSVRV

O=[N+]([O-])c1cccc(C2Nc3ccccc3-c3cc(-c4ccccc4)nn32)c1 (stereo not drawn)
IC50 [1]: 20900 nM
Ratio IC50 [2]: 1.51

Oc1c(Cl)cc(Cl)cc1C1Nc2ccccc2-c2cc(-c3ccccc3)nn21 (stereo not drawn)
IC50 [1]: 11000 nM
Ratio IC50 [2]: 2.89

CCOCCCSc1nc2[nH]cnc2c(=O)[nH]1
Ratio IC50 [3]: 72.4
IC50 [4]: 58 nM

C=CCc1ccc(O)c(O)c1 [HYDROXYCHAVICOL]
IC50 [5]: 16700 nM
Ratio IC50 [2]: 1.84

O=C(/C=C/c1ccc2c(c1)O[C@H](C(=O)O)[C@H](c1ccc(O)c(O)c1)O2)O/C=C\c1ccc(O)c(O)c1
IC50 [6]: 600 to 1100 nM
Ratio IC50 [7]: 8.83

O=c1cc(-c2ccc(O)c(O)c2)oc2cc(O)cc(O)c12 [LUTEOLIN]
Ratio IC50 [8]: 25.32
IC50 [9]: 10200 nM

O=c1cc(-c2cccnc2)[nH]c2ccccc12
IC50 [10]: 6240 nM
Ratio IC50 [8]: 1.33

CCCOCCSc1nc2[nH]cnc2c(=O)[nH]1
Ratio IC50 [3]: 6.27
IC50 [4]: 670 nM

CCCCCCSc1nc2c(=O)[nH]c(O)nc2[nH]1
Ratio IC50 [3]: 6.36
IC50 [4]: 660 nM

CCCCSc1nc(O)c2[nH]cnc2n1
Ratio IC50 [3]: 1.08
IC50 [4]: 3880 nM

O=C(/C=C/c1ccc2c(c1)O[C@@H](c1ccc(O)c(O)c1)[C@@H](C(=O)O)O2)O/C=C\c1ccc(O)c(O)c1
IC50 [6]: 5200 to 28200 nM
Ratio IC50 [7]: 1.02

CCCCCCSc1nc2c(=O)[nH]cnc2[nH]1
Ratio IC50 [3]: 7.5
IC50 [4]: 560 nM

O=c1cc(-c2ccc(O)cc2)oc2cc(O)cc(O)c12 [APIGENIN]
IC50 [11]: 3570 nM

O=c1nc(-c2ccc(Cl)cc2)cc(-c2ccc(Cl)cc2)[nH]1
IC50 [10]: 12000 nM
Ratio IC50 [8]: 1.02

O=c1c(-c2ccc(O)cc2)coc2cc(O)cc(O)c12 [GENISTEIN]
IC50 [12]: 1730 nM
Ratio IC50 [8]: 2.04

O=c1c(O)c(-c2ccc(O)c(O)c2)oc2cc(O)cc(O)c12 [QUERCETIN]
IC50 [6]: 383 nM
IC50 [13]: 400 nM

CC(C)=CCc1cc(C(=O)/C=C/c2ccc(O)c(O)c2)c(O)cc1O [BROUSSOCHALCONE A]
IC50 [14]: 600 nM
Ratio IC50 [2]: 3.33

C=CCc1cc(O)c(O)cc1C(C=C)c1ccc(O)c(O)c1 (stereo not drawn)
IC50 [14]: 280 nM
Ratio IC50 [2]: 25.21

O=c1cc(-c2ccccc2)oc2cc(O)c(O)c(O)c12 [BAICALEIN]
Ratio IC50 [8]: 3.61
IC50 [9]: 71500 nM

Oc1ncnc2[nH]ncc12 [ALLOPURINOL]
IC50 [6]: 5300 nM

Oc1nc(-c2ccccc2)cc(-c2ccccc2)n1
IC50 [10]: 10200 nM
Ratio IC50 [8]: 1.2

N#Cc1cc(-c2n[nH]c(-c3ccncc3)n2)ccn1 [TOPIROXOSTAT]
Ki [15]: 5.7 nM

O=c1cc(-c2ccc(-c3ccccc3)cc2)oc2cc(O)ccc12
IC50 [6]: 347 nM
Ratio IC50 [7]: 1.1 to 1.74

O=C1CC(c2ccc(O)c(-c3c(O)cc(O)c4c3OC(c3ccc(O)cc3)CC4=O)c2)Oc2cc(O)cc(O)c21 (stereo not drawn)
IC50 [16]: 92 nM
Ratio IC50 [2]: 1.09

CC1(C)C=Cc2cc(C(=O)/C=C/c3ccc(O)c(O)c3)c(O)cc2O1
IC50 [14]: 1800 nM
Ratio IC50 [2]: 1.11

O=c1oc2c(O)ccc(-c3oc4cc(O)cc(O)c4c(=O)c3O)c2s1
IC50 [13]: 50 nM
Ratio IC50 [7]: 8

O=c1cc(-c2ccc(-c3ccccc3)cc2)oc2cc(O)cc(O)c12
IC50 [6]: 13.6 nM
Ratio IC50 [7]: 28.2

O=c1nc(-c2ccncc2)cc(-c2cccs2)[nH]1
IC50 [10]: 6450 nM
Ratio IC50 [8]: 1.9

Cc1nc(-c2ccc(OCC(C)C)c(C#N)c2)sc1C(=O)O [FEBUXOSTAT]
Ki [17]: 0.1 nM

CC(C)(C)c1ccc(-c2cc(=O)c3c(O)cc(O)cc3o2)cc1
IC50 [6]: 90.8 nM
Ratio IC50 [7]: 4.22

COCCCCSc1nc2[nH]cnc2c(=O)[nH]1
Ratio IC50 [3]: 150
IC50 [4]: 28 nM

CCCCCCOC(=O)C(=O)Nc1[nH]cnc1C(N)=O
Ratio IC50 [3]: 3.78
IC50 [4]: 1110 nM

O=c1cc(-c2ccccc2)oc2cc(O)cc(O)c12 [CHRYSIN]
Ratio IC50 [8]: 2.33
IC50 [11]: 1260 nM
Ratio IC50 [18]: 2.83

O=c1nc(-c2ccncc2)cc(-c2ccco2)[nH]1
IC50 [10]: 7230 nM
Ratio IC50 [8]: 1.69

CCCCCOC(=O)C(=O)Nc1[nH]cnc1C(N)=O
Ratio IC50 [3]: 2.19
IC50 [4]: 1920 nM

O=C(/C=C/c1ccc2c(c1)O[C@H](c1ccc(O)c(O)c1)[C@@H](C(=O)O)O2)O/C=C\c1ccc(O)c(O)c1
IC50 [6]: 2000 to 4220 nM
Ratio IC50 [7]: 2.65

O=c1nc(-c2ccncc2)cc(-c2cccc3ccccc23)[nH]1
IC50 [10]: 11200 nM
Ratio IC50 [8]: 1.09

COc1ccc(-c2cc(=O)c3c(O)cc(O)cc3o2)cc1 [ACACETIN]
IC50 [6]: 220 nM
Ratio IC50 [7]: 1.74

Reference: ChEMBL document CHEMBL4052641 (Eur J Med Chem, 2017)
